Tested on: subjects with moderate-to-severe plaque psoriasis
Assay: PASI response, Example 2 long-term extension to Week 52
Format: in vivo, human
Settings: for Change from Baseline in PASI Total Score, LSMean: MMRM model
Source text: Described below is a multicenter, long-term extension (LTE), double-blind, dose-ranging, parallel group interventional study in participants from Example 1 to evaluate the long-term efficacy and safety of the hydrochloride salt of the compound of Formula (I) for the treatment of moderate-to-severe plaque psoriasis. Patients from Example 1 continued to receive the same dose of the compound of Formula (I) for an additional 36-week treatment period with a 4-week safety follow up period after the last administration of the compound of Formula (I). Patients randomized to placebo in Example 1 received the compound of Formula (I) at a dose of 100 mg QD starting at Week 16 of Example 1 (FIG. 21).
The primary efficacy endpoint is the proportion of participants achieving a PASI 75 response at Week 52, defined as at least a […] reduction from baseline PASI of Example 1. For primary analysis, composite strategy (non-responder imputation) was applied to address intercurrent event #1 (Discontinuation of study intervention due to lack of efficacy or due to an AE of worsening of psoriasis) and […] (initiation of a protocol-prohibited medication or therapy that could improve psoriasis); treatment policy strategy (observed data) was applied to intercurrent event #3 (Discontinuation of study intervention due to other reasons). Participants with missing data after application of ICEs are considered as non-responders.
Since there was no control arm (after week 16), in this primary analysis, only the proportion of participants who achieved a PASI75 response and its […] confidence interval at Week 52 were summarized for each intervention group.

[1] = Placebo → 100 mg QD, crossed over at or after Week 16, Week 20
[2] = Placebo → 100 mg QD, crossed over at or after Week 16, Week 24
[3] = Placebo → 100 mg QD, crossed over at or after Week 16, Week 28
[4] = Placebo → 100 mg QD, crossed over at or after Week 16, Week 32
[5] = Placebo → 100 mg QD, crossed over at or after Week 16, Week 40
[6] = Placebo → 100 mg QD, crossed over at or after Week 16, Week 52
[7] = Placebo → 100 mg QD, crossed over at or after Week 16, Week 52, non-responder imputation

## CC(=O)NCCCC[C@@H]1NC(=O)[C@H](Cc2c[nH]c3c(C)cccc23)NC(=O)[C@H]([C@@H](C)O)NC(=O)[C@H](CC(N)=O)NC(=O)[C@@H](NC(C)=O)C(C)(C)SSC(C)(C)[C@@H](C(=O)N[C@@H](Cc2ccc(OCCN)cc2)C(=O)N[C@@H](Cc2ccc3ccccc3c2)C(=O)NC2(C(=O)N[C@@H](CCC(=O)O)C(=O)N[C@@H](CC(N)=O)C(=O)N[C@@H](Cc3cccnc3)C(=O)N(C)CC(N)=O)CCOCC2)NC1=O [IL-23 receptor antagonist peptide, Ac-[Pen]*-N-T-[W(7-Me)]-[Lys(Ac)]-[Pen]*-Phe[4-(2-aminoethoxy)]-[2-Nal]-[THP]-E-N-[3-Pal]-Sarc-NH2 (*[Pen]-[Pen]* formdisulfidebond)]
100 mg QD, Week 52
  Subjects achieving PASI 75: 28 (65.1%)
  Change from Baseline in PASI Total Score, LSMean: −15.5
100 mg QD, Week 52, non-responder imputation
  Subjects achieving ≥75% Improvement at Week 52 (PASI 75 Response): 28 (65.1%)
[1]
  Change from Baseline in PASI Total Score, Mean: −10.44
  Change from Baseline in PASI Total Score, Median: −10.35
  Change from Baseline in PASI Total Score, LSMean: −10.3
[2]
  Change from Baseline in PASI Total Score, Mean: −13.26
  Change from Baseline in PASI Total Score, Median: −14.10
  Change from Baseline in PASI Total Score, LSMean: −13.2
[3]
  Change from Baseline in PASI Total Score, Mean: −13.77
  Change from Baseline in PASI Total Score, Median: −14.10
  Change from Baseline in PASI Total Score, LSMean: −13.7
[4]
  Change from Baseline in PASI Total Score, Mean: −14.14
  Change from Baseline in PASI Total Score, Median: −14.75
  Change from Baseline in PASI Total Score, LSMean: −13.7
[5]
  Change from Baseline in PASI Total Score, Mean: −13.73
  Change from Baseline in PASI Total Score, Median: −14.85
  Change from Baseline in PASI Total Score, LSMean: −13.6
[6]
  Change from Baseline in PASI Total Score, Mean: −14.15
  Change from Baseline in PASI Total Score, Median: −15.30
  Change from Baseline in PASI Total Score, LSMean: −14.0
[7]
  Subjects achieving 100% Improvement at Week 52 (PASI): 12 (34.3%)
  Subjects achieving ≥75% Improvement at Week 52 (PASI 75 Response): 23 (65.7%)
  Subjects achieving ≥90% Improvement at Week 52 (PASI): 20 (57.1%)
Week 1, 50 mg QD, N=43
  PASI ≥75% Improvement, subjects (%): (4.7%)
Week 1, 100 mg BID, N=42
  PASI ≥75% Improvement, subjects (%): (2.4%)
  PASI ≥90% Improvement, subjects (%): (2.4%)
Week 1, 100 mg QD, N=43
  PASI ≥75% Improvement, subjects (%): (2.3%)
Week 2, 50 mg QD, N=43
  PASI ≥75% Improvement, subjects (%): (4.7%)
Week 2, 100 mg BID, N=42
  PASI ≥75% Improvement, subjects (%): (4.8%)
  PASI ≥90% Improvement, subjects (%): (2.4%)
Week 2, 100 mg QD, N=43
  PASI ≥75% Improvement, subjects (%): (2.3%)
Week 4, 25 mg BID, N=41
  PASI ≥75% Improvement, subjects (%): (4.9%)
Week 4, 25 mg QD, N=43
  PASI ≥75% Improvement, subjects (%): (9.3%)
  PASI ≥90% Improvement, subjects (%): (2.3%)
Week 4, 50 mg QD, N=43
  PASI ≥75% Improvement, subjects (%): (16.3%)
Week 4, 100 mg BID, N=42
  PASI ≥75% Improvement, subjects (%): (23.8%)
  PASI ≥90% Improvement, subjects (%): (9.5%)
Week 4, 100 mg QD, N=43
  PASI ≥75% Improvement, subjects (%): (16.3%)
  PASI ≥90% Improvement, subjects (%): (4.7%)
Week 8, 25 mg BID, N=41
  PASI 100% Improvement, subjects (%): (2.4%)
  PASI ≥75% Improvement, subjects (%): (19.5%)
  PASI ≥90% Improvement, subjects (%): (7.3%)
Week 8, 25 mg QD, N=43
  PASI 100% Improvement, subjects (%): (2.3%)
  PASI ≥75% Improvement, subjects (%): (23.3%)
  PASI ≥90% Improvement, subjects (%): (14.0%)
Week 8, 50 mg QD, N=43
  PASI 100% Improvement, subjects (%): (2.3%)
  PASI ≥75% Improvement, subjects (%): (39.5%)
  PASI ≥90% Improvement, subjects (%): (18.6%)
Week 8, 100 mg BID, N=42
  PASI 100% Improvement, subjects (%): (11.9%)
  PASI ≥75% Improvement, subjects (%): (47.6%)
  PASI ≥90% Improvement, subjects (%): (28.6%)
Week 8, 100 mg QD, N=43
  PASI 100% Improvement, subjects (%): (4.7%)
  PASI ≥75% Improvement, subjects (%): (44.2%)
  PASI ≥90% Improvement, subjects (%): (20.9%)
Week 12, 25 mg BID, N=41
  PASI 100% Improvement, subjects (%): (4.9%)
  PASI ≥75% Improvement, subjects (%): (51.2%)
  PASI ≥90% Improvement, subjects (%): (19.5%)
Week 12, 25 mg QD, N=43
  PASI 100% Improvement, subjects (%): (4.7%)
  PASI ≥75% Improvement, subjects (%): (34.9%)
  PASI ≥90% Improvement, subjects (%): (18.6%)
Week 12, 50 mg QD, N=43
  PASI 100% Improvement, subjects (%): (4.7%)
  PASI ≥75% Improvement, subjects (%): (51.2%)
  PASI ≥90% Improvement, subjects (%): (34.9%)
Week 12, 100 mg BID, N=42
  PASI 100% Improvement, subjects (%): (33.3%)
  PASI ≥75% Improvement, subjects (%): (73.8%)
  PASI ≥90% Improvement, subjects (%): (52.4%)
Week 12, 100 mg QD, N=43
  PASI 100% Improvement, subjects (%): (14.0%)
  PASI ≥75% Improvement, subjects (%): (62.8%)
  PASI ≥90% Improvement, subjects (%): (39.5%)
Week 16, 25 mg BID, N=41
  PASI 100% Improvement, subjects (%): (9.8%)
  PASI ≥75% Improvement, subjects (%): (51.2%)
  PASI ≥90% Improvement, subjects (%): (26.8%)
Week 16, 25 mg QD, N=43
  PASI 100% Improvement, subjects (%): (11.6%)
  PASI ≥75% Improvement, subjects (%): (37.2%)
  PASI ≥90% Improvement, subjects (%): (25.6%)
Week 16, 50 mg QD, N=43
  PASI 100% Improvement, subjects (%): (25.6%)
  PASI ≥75% Improvement, subjects (%): (58.1%)
  PASI ≥90% Improvement, subjects (%): (51.2%)
Week 16, 100 mg BID, N=42
  PASI 100% Improvement, subjects (%): (40.5%)
  PASI ≥75% Improvement, subjects (%): (78.6%)
  PASI ≥90% Improvement, subjects (%): (59.5%)
Week 16, 100 mg QD, N=43
  PASI 100% Improvement, subjects (%): (23.3%)
  PASI ≥75% Improvement, subjects (%): (65.1%)
  PASI ≥90% Improvement, subjects (%): (46.5%)
Week 20, 25 mg BID, N=41
  PASI 100% Improvement, subjects (%): (19.5%)
  PASI ≥75% Improvement, subjects (%): (56.1%)
  PASI ≥90% Improvement, subjects (%): (34.1%)
Week 20, 25 mg QD, N=43
  PASI 100% Improvement, subjects (%): (14.0%)
  PASI ≥75% Improvement, subjects (%): (48.8%)
  PASI ≥90% Improvement, subjects (%): (30.2%)
Week 20, 50 mg QD, N=43
  PASI 100% Improvement, subjects (%): (18.6%)
  PASI ≥75% Improvement, subjects (%): (62.8%)
  PASI ≥90% Improvement, subjects (%): (48.8%)
Week 20, 100 mg BID, N=42
  PASI 100% Improvement, subjects (%): (40.5%)
  PASI ≥75% Improvement, subjects (%): (81.0%)
